From PubChem BioAssay (NCI)
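All cell lines were grown in 96-well plates and treated with compound for 48 hours. The concentration for 50% growth inhibition is given as GI50. TGI denotes the concentration required for complete inhibition of growth.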

What was measured:
Assay in all cases: DTP human tumour cell line panel, 48 h
SNB-75 CNS = tested on: SNB-75 CNS
SF-539 CNS = tested on: SF-539 CNS
HCT-15 colon = tested on: HCT-15 colon
SF-268 CNS = tested on: SF-268 CNS
NCI-H23 lung = tested on: NCI-H23 lung
HCC-2998 colon = tested on: HCC-2998 colon
SN12C renal = tested on: SN12C renal
DU-145 prostate = tested on: DU-145 prostate
BT-549 breast = tested on: BT-549 breast
SK-MEL-5 melanoma = tested on: SK-MEL-5 melanoma
RPMI-8226 leukemia = tested on: RPMI-8226 leukemia
MOLT-4 leukemia = tested on: MOLT-4 leukemia
EKVX NSCLC = tested on: EKVX NSCLC
OVCAR-8 ovarian = tested on: OVCAR-8 ovarian
UACC-257 melanoma = tested on: UACC-257 melanoma
TK-10 renal = tested on: TK-10 renal
SK-MEL-2 melanoma = tested on: SK-MEL-2 melanoma
OVCAR-3 ovarian = tested on: OVCAR-3 ovarian
COLO 205 colon = tested on: COLO 205 colon
K-562 leukemia = tested on: K-562 leukemia
HL-60(TB) leukemia = tested on: HL-60(TB) leukemia
SK-OV-3 ovarian = tested on: SK-OV-3 ovarian
CCRF-CEM leukemia = tested on: CCRF-CEM leukemia
UACC-62 melanoma = tested on: UACC-62 melanoma
HOP-92 NSCLC = tested on: HOP-92 NSCLC
HCT-116 colon = tested on: HCT-116 colon
SR leukemia = tested on: SR leukemia
KM12 colon = tested on: KM12 colon
SF-295 CNS = tested on: SF-295 CNS
NCI-H226 lung = tested on: NCI-H226 lung
OVCAR-4 ovarian = tested on: OVCAR-4 ovarian
SNB-19 CNS = tested on: SNB-19 CNS
A498 renal = tested on: A498 renal
M14 melanoma = tested on: M14 melanoma
T-47D breast = tested on: T-47D breast
UO-31 renal = tested on: UO-31 renal
MCF7 breast = tested on: MCF7 breast
MDA-MB-435 = tested on: MDA-MB-435
NCI-H460 lung = tested on: NCI-H460 lung
HT29 colon = tested on: HT29 colon
MALME-3M melanoma = tested on: MALME-3M melanoma
ACHN renal = tested on: ACHN renal
U251 CNS = tested on: U251 CNS
LOX IMVI melanoma = tested on: LOX IMVI melanoma
NCI/ADR-RES ovarian = tested on: NCI/ADR-RES ovarian
CAKI-1 renal = tested on: CAKI-1 renal
OVCAR-5 ovarian = tested on: OVCAR-5 ovarian
786-0 renal = tested on: 786-0 renal
PC-3 prostate = tested on: PC-3 prostate
MDA-MB-231 breast = tested on: MDA-MB-231 breast
NCI-H522 lung = tested on: NCI-H522 lung
IGROV1 ovarian = tested on: IGROV1 ovarian
A549 NSCLC = tested on: A549 NSCLC
HOP-62 NSCLC = tested on: HOP-62 NSCLC

Structure (SMILES): COc1cc(C(=O)/C=C/c2c(-c3cccs3)nc3sc(C)cn23)cc(OC)c1OC
- GI50 (SNB-75 CNS): 2.49 µM
- TGI (SNB-75 CNS): 6.93 µM
- GI50 (SF-539 CNS): 2.12 µM
- TGI (SF-539 CNS): 5.17 µM
- GI50 (HCT-15 colon): 3.38 µM
- TGI (HCT-15 colon): > 100 µM
- GI50 (SF-268 CNS): 3.84 µM
- TGI (SF-268 CNS): > 100 µM
- GI50 (NCI-H23 lung): 4.97 µM
- TGI (NCI-H23 lung): > 100 µM
- GI50 (HCC-2998 colon): 3.87 µM
- TGI (HCC-2998 colon): 12.4 µM
- GI50 (SN12C renal): 5.29 µM
- TGI (SN12C renal): > 100 µM
- GI50 (DU-145 prostate): 2.99 µM
- TGI (DU-145 prostate): 14 µM
- GI50 (BT-549 breast): 3.82 µM
- TGI (BT-549 breast): 39.9 µM
- GI50 (SK-MEL-5 melanoma): 0.948 µM
- TGI (SK-MEL-5 melanoma): 3.22 µM
- GI50 (RPMI-8226 leukemia): 1.67 µM
- TGI (RPMI-8226 leukemia): 15.6 µM
- GI50 (MOLT-4 leukemia): 1.27 µM
- TGI (MOLT-4 leukemia): 6.62 µM
- GI50 (EKVX NSCLC): 1.99 µM
- TGI (EKVX NSCLC): > 100 µM
- GI50 (OVCAR-8 ovarian): 1.21 µM
- TGI (OVCAR-8 ovarian): 8.31 µM
- GI50 (UACC-257 melanoma): 3.86 µM
- TGI (UACC-257 melanoma): 66 µM
- GI50 (TK-10 renal): 6.16 µM
- TGI (TK-10 renal): > 100 µM
- GI50 (SK-MEL-2 melanoma): 2.73 µM
- TGI (SK-MEL-2 melanoma): 8.31 µM
- GI50 (OVCAR-3 ovarian): 2.8 µM
- TGI (OVCAR-3 ovarian): 18.7 µM
- GI50 (COLO 205 colon): 4.01 µM
- TGI (COLO 205 colon): > 100 µM
- GI50 (K-562 leukemia): 2.07 µM
- TGI (K-562 leukemia): > 100 µM
- GI50 (HL-60(TB) leukemia): 2.69 µM
- TGI (HL-60(TB) leukemia): > 100 µM
- GI50 (SK-OV-3 ovarian): 3.37 µM
- TGI (SK-OV-3 ovarian): 10.4 µM
- GI50 (CCRF-CEM leukemia): 1.93 µM
- TGI (CCRF-CEM leukemia): > 100 µM
- GI50 (UACC-62 melanoma): 2.52 µM
- TGI (UACC-62 melanoma): 19.9 µM
- GI50 (HOP-92 NSCLC): 0.47 µM
- TGI (HOP-92 NSCLC): 4.93 µM
- GI50 (HCT-116 colon): 3.8 µM
- TGI (HCT-116 colon): > 100 µM
- GI50 (SR leukemia): 1.12 µM
- TGI (SR leukemia): 5.46 µM
- GI50 (KM12 colon): 2.83 µM
- TGI (KM12 colon): > 100 µM
- GI50 (SF-295 CNS): 3.69 µM
- TGI (SF-295 CNS): > 100 µM
- GI50 (NCI-H226 lung): 4.6 µM
- TGI (NCI-H226 lung): 54.8 µM
- GI50 (OVCAR-4 ovarian): 2.85 µM
- TGI (OVCAR-4 ovarian): 22.3 µM
- GI50 (SNB-19 CNS): 2.91 µM
- TGI (SNB-19 CNS): 13.3 µM
- GI50 (A498 renal): 1.51 µM
- TGI (A498 renal): 5.78 µM
- GI50 (M14 melanoma): 5.59 µM
- TGI (M14 melanoma): > 100 µM
- GI50 (T-47D breast): 1.77 µM
- TGI (T-47D breast): 7.65 µM
- GI50 (UO-31 renal): 1.84 µM
- TGI (UO-31 renal): 7.97 µM
- GI50 (MCF7 breast): 2.35 µM
- TGI (MCF7 breast): 20.5 µM
- GI50 (MDA-MB-435): 2.68 µM
- TGI (MDA-MB-435): 31.6 µM
- GI50 (NCI-H460 lung): 1.87 µM
- TGI (NCI-H460 lung): 5.3 µM
- GI50 (HT29 colon): 3.91 µM
- TGI (HT29 colon): > 100 µM
- GI50 (MALME-3M melanoma): 3.19 µM
- TGI (MALME-3M melanoma): 15 µM
- GI50 (ACHN renal): 5.15 µM
- TGI (ACHN renal): > 100 µM
- GI50 (U251 CNS): 3.72 µM
- TGI (U251 CNS): > 100 µM
- GI50 (LOX IMVI melanoma): 3.84 µM
- TGI (LOX IMVI melanoma): > 100 µM
- GI50 (NCI/ADR-RES ovarian): 2.1 µM
- TGI (NCI/ADR-RES ovarian): 33.9 µM
- GI50 (CAKI-1 renal): 2.92 µM
- TGI (CAKI-1 renal): > 100 µM
- GI50 (OVCAR-5 ovarian): 82 µM
- TGI (OVCAR-5 ovarian): > 100 µM
- GI50 (786-0 renal): 3.7 µM
- TGI (786-0 renal): 38.2 µM
- GI50 (PC-3 prostate): 2.8 µM
- TGI (PC-3 prostate): > 100 µM
- GI50 (MDA-MB-231 breast): 2.96 µM
- TGI (MDA-MB-231 breast): 31.1 µM
- GI50 (NCI-H522 lung): 1.36 µM
- TGI (NCI-H522 lung): 4.57 µM
- GI50 (IGROV1 ovarian): 2.53 µM
- TGI (IGROV1 ovarian): 6.35 µM
- GI50 (A549 NSCLC): 2.69 µM
- TGI (A549 NSCLC): 19.6 µM
- GI50 (HOP-62 NSCLC): 5.74 µM
- TGI (HOP-62 NSCLC): 64.5 µM
